Reference: patent US9545386B2, “Methods of treating infectious diseases” (SLIPPERY ROCK UNIVERSITY FOUNDATION, INC., priority 2007, dated 2017)

Columns and labels:
Type in all cases: cell-based
[1] = system: Parastrongyloides trichosuri infective larvae; assay: In vitro bioassay of infective larvae, immobilization and lethal doses (eosin, Probit); settings: for 24 hr ID50 ± 95% confidence intervals / 24 hr ID90 ± 95% confidence intervals / 24 hr LD50 ± 95% confidence intervals / 24 hr LD90 ± 95% confidence intervals: P. trichosuri infective larvae, 24 hr in vitro; for 24 hr ID50 ± 95% confidence intervals: immobilize 50%; for 24 hr ID90 ± 95% confidence intervals: immobilize 90%; for 24 hr LD50 ± 95% confidence intervals: kill 50%; for 24 hr LD90 ± 95% confidence intervals: kill 90%
Protocol: (§1) Strongyloides stercoralis infective larvae were harvested from charcoal coprocultures in nematode saline solution. The larvae were supplied by the Parasitology Laboratory, Department of Pathobiology, University of Pennsylvania. The strain of larvae was a human strain of the parasitic nematode that had been maintained for over ten years in canines by daily prednisolone treatment (2 mg/kg per os, once daily. Parastrongyloides trichosuri and Ancylostoma caninum infective larvae were also supplied by the same source as for S. stercoralis. Haemonchus contortus infective larvae were harvested from charcoal coprocultures in nematode saline solution prepared from infected sheep feces obtained from Merck Parasites Laboratory.
(§2) The 24 hr 50% and 90% immobilization doses (ID50 and ID90), and 50% and 90% lethal doses (LD50 and LD90) of eryngial (mg/ml) were investigated in vitro using infective larvae of all four parasitic nematodes. Each species was exposed to a range of eryngial dilutions by adding known volumes of a homogeneous ‘wormy’ solution (infective larvae in nematode saline solution) to known volumes of an eryngial stock suspension (10 mg/ml of nematode saline solution). Each dilution, including the control (0 mg/ml eryngial), was prepared in triplicate and also contained eosin (0.01%, w/v), which was used as an indicator of mortality, and Triton X-100 (1.0%, v/v).
(§3) Using S. stercoralis, P. trichosuri, H. contortus and A. caninum infective larvae, eryngial dilutions, excluding the controls, ranged from 0.05 to 1.15 mg/ml; 0.01 to 1.0 mg/ml; 0.5 to 2.0 mg/ml; and 0.8 to 3.0 mg/ml, respectively. Sub-sample (10 μl) counts of larvae that were mobile, immobile but not stained and stained, were done at the start of each bioassay and at 24 hr intervals for two days. Each sub-sample contained approximately 50 infective larvae.
(§4) Probit analysis was used to determine 24 hr and 48 hr immobilization and lethal doses for eryngial and ivermectin, respectively.

[2] = system: Ancylostoma caninum infective larvae; assay: as above; settings: for 24 hr ID50 ± 95% confidence intervals: immobilize 50%; for 24 hr ID90 ± 95% confidence intervals: immobilize 90%
Protocol: as §1, §2, §3, §4

[3] = system: Trypanosoma mega trypomastigotes; assay: In vitro antitrypanosomal bioassay, trypomastigote counts (Probit LC50/LC95); settings: T. mega; for 24 hr LC95 ± 95% confidence intervals: 24 hr in vitro
Protocol: (§5) In this study, 75 μl of Locke's nematode saline (L.N.S.) solution with approximately 1.0×10^5 trypomastigotes/ml of each organism were placed in 15 wells of a cell culture plate. For T. mega, T. conorhini and T. avium, stock concentrations of eryngial (1, 2, 3 and 4 mg/ml) with 0.04% (w/v) Triton X-100 were prepared in L.N.S. Triton X-100 acted as an emulsifier for eryngial. Triplicate samples of each eryngial concentration were prepared by adding 75 μl of the stock to the wells with trypomastigotes of each species. The number of trypanosomes in each well therefore approximated 5×10^4/ml, while final concentrations of eryngial in the wells were 0.5, 1.0, 1.5, and 2.0 mg/ml, respectively. Each sample also had 0.02% Trition X-100. The control samples had no eryngial. The number of trypomastigotes that were present in 20 μl sub-samples of each well was determined using a hemacytometer at 0, 24 and 48 hr. A count of the trypanosomes in each grid was recorded and the average number of organisms per milliliter was determined. The above procedure was repeated to determine the effect of eryngial on T. rangeli. However, the final concentration of eryngial, the test compound, ranged from 0.15 to 0.9 mg/ml.

[4] = system: Trypanosoma rangeli trypomastigotes; assay: as above; settings: T. rangeli; for 24 hr LC95 ± 95% confidence intervals: 24 hr in vitro, 0.02% Triton X-100; for 48 hr LC95 ± 95% confidence intervals: 48 hr in vitro
Protocol: as §5

[5] = system: Haemonchus contortus infective larvae; assay: In vitro bioassay of infective larvae, immobilization and lethal doses (eosin, Probit); settings: for 24 hr ID50 ± 95% confidence intervals / 48 hr ID50 ± 95% confidence intervals: immobilize 50%; for 48 hr ID50 ± 95% confidence intervals: 48 hr in vitro
Protocol: as §1, §2, §3
The 48-hr immobilization doses (ID50 and ID90) and lethal doses (LD50 and LD90) of eryngial and ivermectin also were investigated, using S. stercoralis and H. contortus infective larvae. Each bioassay was conducted as described hereinabove. Using S. stercoralis and H. contortus infective larvae, ivermectin dilutions (not including the controls) ranged from 0.03 to 0.3 mg/ml and from 0.009 to 0.1 mg/ml, respectively.
as §4

[6] = A. caninum infective larvae, 24 hr in vitro
[7] = A. caninum infective larvae, 24 hr in vitro, listed as eryngial
[8] = H. contortus infective larvae, 48 hr, eryngial vs ivermectin

CCCCCCCCC/C=C/C=O [Eryngial, trans-2-dodecenal]
increased sensitivity to eryngial (90% immobilization) ([1]; 24 hr ID90, P. trichosuri compared to A. caninum): 9.4 fold
increased sensitivity to eryngial (90% immobilization) ([1]; 24 hr ID90, P. trichosuri over H. contortus): 8.5 fold
increase in sensitivity to eryngial (50% mortality doses) ([1]; 24 hr LD50, P. trichosuri over A. caninum): 5.8 fold
increase in sensitivity to eryngial (50% mortality doses) ([1]; 24 hr LD50, P. trichosuri over H. contortus): 17.1 fold
increased sensitivity to eryngial (90% mortality doses) ([1]; 24 hr LD90, P. trichosuri over A. caninum): 4 fold
increased sensitivity to eryngial (90% mortality doses) ([1]; 24 hr LD90, P. trichosuri over H. contortus): 9.3 fold
24 hr ID50 ± 95% confidence intervals [1]: 0.013 (0.007-0.030) mg/ml
24 hr ID50 ± 95% confidence intervals ([1]; listed as eryngial): 0.013 mg/mL
24 hr ID90 ± 95% confidence intervals [1]: 0.092 (0.051-0.201) mg/ml
24 hr ID90 ± 95% confidence intervals ([1]; listed as eryngial): 0.092 mg/mL
24 hr LD50 ± 95% confidence intervals [1]: 0.105 (0.084-0.133) mg/ml
24 hr LD50 ± 95% confidence intervals ([1]; listed as eryngial): 0.105 mg/mL
24 hr LD90 ± 95% confidence intervals [1]: 0.297 (0.214-0.515) mg/ml
24 hr LD90 ± 95% confidence intervals ([1]; listed as eryngial): 0.297 mg/mL
increase in the dose required to immobilize 50% ([2]; 24 hr ID50, A. caninum relative to P. trichosuri): 41.9 fold
24 hr ID50 ± 95% confidence intervals [2, 6]: 0.545 (0.440-0.641) mg/ml
24 hr ID50 ± 95% confidence intervals [2, 7]: 0.545 mg/mL
24 hr ID90 ± 95% confidence intervals [2, 6]: 0.867 (0.717-1.445) mg/ml
24 hr ID90 ± 95% confidence intervals [2, 7]: 0.867 mg/mL
24 hr LD50 ± 95% confidence intervals ([2]; A. caninum infective larvae, kill 50%, 24 hr in vitro): 0.608 (0.429-0.765) mg/ml
24 hr LD90 ± 95% confidence intervals ([2]; A. caninum infective larvae, kill 90%, 24 hr in vitro): 1.178 (0.913-2.100) mg/ml
24 hr LC95 ± 95% confidence intervals [3]: 2.85 (2.20-4.40) mg/ml
24 hr LC95 ± 95% confidence intervals ([3]; listed as eryngial): 2.85 mg/mL
48 hr LC50 ± 95% confidence intervals ([3]; 48 hr in vitro): 0.50 (0.39-0.58) mg/ml
48 hr LC95 ± 95% confidence intervals ([3]; 48 hr in vitro): 1.14 (0.95-1.56) mg/ml
48 hr LC95 ± 95% confidence intervals ([3]; 48 hr in vitro, listed as eryngial): 2.31 mg/mL
24 hr LC95 ± 95% confidence intervals [4]: 0.45 (0.38-0.55) mg/ml
24 hr LC95 ± 95% confidence intervals ([4]; listed as eryngial): 0.45 mg/mL
48 hr LC95 ± 95% confidence intervals [4]: 0.31 (0.26-0.43) mg/ml
48 hr LC95 ± 95% confidence intervals ([4]; listed as eryngial): 0.31 mg/mL
increase in the dose required to immobilize 50% ([5]; 24 hr ID50, H. contortus relative to P. trichosuri): 10.2 fold
times more effective than ivermectin at eliciting 90% mortality [5, 8]: 2.9 times
times more potent at killing 50% than ivermectin [5, 8]: 3.7 times
24 hr ID50 ± 95% confidence intervals ([5]; H. contortus infective larvae, 24 hr in vitro): 0.132 (0.078-0.186) mg/ml
24 hr ID50 ± 95% confidence intervals ([5]; H. contortus infective larvae, 24 hr in vitro, listed as eryngial): 0.132 mg/mL
48 hr ID50 ± 95% confidence intervals ([5]; H. contortus infective larvae): 0.313 (0.143-0.453) mg/ml
48 hr ID50 ± 95% confidence intervals ([5]; H. contortus infective larvae, listed as eryngial): 0.313 mg/mL
24 hr ID90 ± 95% confidence intervals ([5]; H. contortus infective larvae, immobilize 90%, 24 hr in vitro): 0.782 (0.641-0.998) mg/ml
